Experimental data reported in patent US8999973B2, “Thieno[3,2-d]pyrimidine derivatives having inhibitory activity on protein kinases” (Hanmi Science Co., Ltd, priority 2010, dated 2015).
Where a chain is given by its changes, count along the chain named. pIC50: −log10 of the molar value.

How the values were obtained:
[1] = target: T1, Bcr-Abl^T315I (Homo sapiens, UniProt P00519, T315I); experiment: Kinase activation assay (IC50), fluorescence polarization tyrosine kinase assay kit; format: biochemical; conditions: T315I mutation kinase domain (Millipore), Poly (Glu, Tyr) 4:1 substrate, FP readout
T1 construct: purchased Millipore
T1 sequence (P00519 242-493 T315I limits assumed): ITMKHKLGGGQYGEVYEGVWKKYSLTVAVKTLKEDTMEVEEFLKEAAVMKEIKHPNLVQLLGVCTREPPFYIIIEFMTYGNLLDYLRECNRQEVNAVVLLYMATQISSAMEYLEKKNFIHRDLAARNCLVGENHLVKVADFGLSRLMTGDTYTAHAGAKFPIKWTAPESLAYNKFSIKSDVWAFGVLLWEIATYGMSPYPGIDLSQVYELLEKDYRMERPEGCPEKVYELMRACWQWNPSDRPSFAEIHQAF
Description: (§1) Test 1: Kinase Activation Assay (IC50)
(§2) A kinase domain (Millipore) comprising the entire cytoplasmic sequences of Bcr-Abl^wt and Bcr-Abl^T315I mutation kinases and a tyrosine kinase assay kit (Panvera, P2837) were used to measure an inhibitory activation on Bcr-abl. Other kinases such as FGFR, Flt, KDR, PDGFR, Fms, Kit, Raf, Tie2, Src, and Ret were also measured by the same method. In order to prepare a sample, the each compound obtained in Examples 1 to 128 was diluted 10 times with a kinase buffer to a concentration of 10˜0.0001 μM.
(§3) The each kinase was diluted with a kinase buffer to a concentration of 30˜300 ng/assay by using the each Kd value. The kinase buffer consisted of 100 mM HEPES (PH 7.4), 25 mM MgCl2, 10 mM MnCl2, and 250 μM Na3VO4, being kept refrigerated after filtered.
(§4) The test was conducted in 96 well polystyrene round bottom plates. First, 10 μL of the diluted sample was combined with 10 μL of the enzyme solution at room temperature for 10 minutes using a shaker. 10 μL of Poly (Glu, Tyr) 4:1 (Sigma) matrix solution in an appropriate concentration and 10 μL of ATP solution (5˜300 μM) were added to the sample and subjected to a reaction at room temperature for 60 minutes in a shaker. After 60 minutes, an EDTA solution was added thereto to complete the kinase reaction and the reaction mixture was left in a shaker for 5 minutes at room temperature. A tracer, an antibody, and a fluorescence polarization (FP) diluted reaction solution were mixed at a ratio of 1:1:3 to prepare a detecting solution, 50 μL of which was added to the each sample and subjected to a reaction at room temperature for 30 minutes in a shaker. As fluorescing, light was blocked out and the FP value was measured using a FP instrument (excitation wavelength: 485 nm, and emission wavelength: 530 nm).
(§5) And the inhibition on kinase reaction was calculated for the sample in the range of 0˜100% as compared to the control group, and the concentration on x-axis at 50% inhibition was obtained as an inhibitory concentration (IC50) value.
(§6) 50% inhibitory concentration (IC50) Y=bottom+(top−bottom)/(1+10exp(X−log IC50)

[2] = target: T2, Bcr-Abl^wt (Homo sapiens, UniProt P00519); experiment: as above; format: biochemical; conditions: kinase domain (Millipore), Poly (Glu, Tyr) 4:1 substrate, FP readout
T2 construct: purchased Millipore
T2 sequence (P00519 242-493 limits assumed): T1 sequence (P00519 242-493 T315I limits assumed) with I74T
Description: as §1, §2, §3, §4, §5, §6

Row | pIC50 [1] | pIC50 [2] | SMILES
1 | 6.00 to 7.00 | 7.00 to 9.00 | CCN1CCN(Cc2ccc(C(=O)Nc3ccc(C)c(/C=C/c4csc5c(N)ncnc45)c3)cc2C(F)(F)F)CC1 [Example 7, (E)-N-(3-(2-(4-aminothieno[3,2-d]pyrimidine-7-yl)vinyl)-4-methylphenyl)-4-((4-ethylpiperazin-1-yl)methyl)-3-(trifluoromethyl)benzamide]
2 | 7.00 to 9.00 | 7.00 to 9.00 | Cc1cn(-c2cc(NC(=O)c3ccc(C)c(NC(=O)c4csc5c(NC6CC6)ncnc45)c3)cc(C(F)(F)F)c2)c(C)n1 [Example 31, 4-(cyclopropylamino)-N-(5-(3-(2,4-dimethyl-1H-imidazole-1-yl)-5-(trifluoromethyl)phenylcarbamoyl)-2-methylphenyl)thieno[3,2-d]pyrimidine-7-carboxamide]
3 | 7.00 to 9.00 | 7.00 to 9.00 | CCN1CCN(Cc2ccc(C(=O)Nc3ccc(C)c(NC(=O)c4csc5c(N)ncnc45)c3)cc2C(F)(F)F)CC1 [Example 49, 4-amino-N-(5-(4-((4-ethylpiperazine-1-yl)methyl)-3-(trifluoromethyl)benzamido)-2-methylphenyl)thieno[3,2-d]pyrimidine-7-carboxamide]
4 | 5.00 to 6.00 | 7.00 to 9.00 | CC(=O)OCc1ccc(NC(=O)c2ccc(C)c(NC(=O)c3csc4c(NC5CC5)ncnc34)c2)cc1C(F)(F)F [Example 23, 4-(3-(4-(cyclopropylamino)thieno[3,2-d]pyrimidine-7-carboxamido)-4-methylbenzamido)-2-(trifluoromethyl)benzyl acetate]
5 | 7.00 to 9.00 | 7.00 to 9.00 | Cc1ccc(C(=O)Nc2cccc(C(F)(F)F)c2)cc1NC(=O)c1csc2c(N)ncnc12 [Example 8, 4-amino-N-(2-methyl-5-(3-(trifluoromethyl)phenylcarbamoyl)phenyl)thieno[3,2-d]pyrimidine-7-carboxamide]
6 | 5.00 to 6.00 | 7.00 to 9.00 | Cc1ccc(C(=O)Nc2ccc(N3CCOCC3)nc2)cc1NC(=O)c1csc2c(NC3CC3)ncnc12 [Example 29, 4-(cyclopropylamino)-N-(2-methyl-5-(6-morpholinopyridine-3-ylcarbamoyl)phenyl)thieno[3,2-d]pyrimidine-7-carboxamide]
7 | 7.00 to 9.00 | 7.00 to 9.00 | Cc1ccc(C(=O)Nc2ccc(CO)c(C(F)(F)F)c2)cc1NC(=O)c1csc2c(NC3CC3)ncnc12 [Example 24, 4-(cyclopropylamino)-N-(5-(4-(hydroxymethyl)-3-(trifluoromethyl)phenylcarbamoyl)-2-methylphenyl)thieno[3,2-d]pyrimidine-7-carboxamide]
8 | 5.00 to 6.00 | 6.00 to 7.00 | COc1cc(Nc2ncnc3c(C(=O)Nc4cc(C(=O)Nc5cccc(C(F)(F)F)c5)ccc4C)csc23)cc(OC)c1OC [Example 14, N-(2-methyl-5-(3-(trifluoromethyl)phenylcarbamoyl)phenyl)-4-(3,4,5-trimethoxyphenylamino)thieno[3,2-d]pyrimidine-7-carboxamide]
9 | 5.00 to 6.00 | 7.00 to 9.00 | Cc1ccc(NC(=O)c2cc(C3CC3)on2)cc1NC(=O)c1csc2c(N)ncnc12 [Example 67, N-(3-(4-aminothieno[3,2-d]pyrimidine-7-carboxyamido)-4-methylphenyl)-5-cyclopropylisoxazol-3-carboxamide]
10 | 5.00 to 6.00 | 7.00 to 9.00 | Cc1ccc(NC(=O)c2cccc(C(F)(F)F)c2)cc1NC(=O)c1csc2c(NC3CCCC3)ncnc12 [Example 71, 4-(cyclopentylamino)-N-(2-methyl-5-(3-(trifluoromethyl)benzamido)phenyl)thieno[3,2-d]pyrimidine-7-carboxamide]
11 | 6.00 to 7.00 | 7.00 to 9.00 | COc1cc(NC(=O)c2ccc(C)c(NC(=O)c3csc4c(N)ncnc34)c2)cc(OC)c1 [Example 12, 4-amino-N-(5-(3,5-dimethoxyphenylcarbamoyl)-2-methylphenyl)thieno[3,2-d]pyrimidine-7-carboxamide]
12 | 7.00 to 9.00 | 7.00 to 9.00 | Cc1ccc(NC(=O)c2ccc(CN3CC[C@H](N(C)C)C3)c(C(F)(F)F)c2)cc1NC(=O)c1csc2c(NC3CC3)ncnc12 [Example 76, (S)-4-(cyclopropylamino)-N-(5-(4-((3-(dimethylamino)pyrrolidin-1-yl)methyl)-3-(trifluoromethyl)benzoamido)-2-methylphenyl)thieno[3,2-d]pyrimidine-7-carboxamide]
13 | 7.00 to 9.00 | 7.00 to 9.00 | Cc1ccc(NC(=O)c2cc(-n3ccnc3C)cc(C(F)(F)F)c2)cc1NC(=O)c1csc2c(N)ncnc12 [Example 61, 4-amino-N-(2-methyl-5-(3-(2-methyl-1H-imidazole-1-yl)-5-(trifluoromethyl)benzamido)phenyl)thieno[3,2-d]pyrimidine-7-carboxamide]
14 | 6.00 to 7.00 | 7.00 to 9.00 | COc1cc(OC)cc(C(=O)Nc2ccc(C)c(NC(=O)c3csc4c(N)ncnc34)c2)c1 [Example 43, 4-amino-N-(5-(3,5-dimethoxybenzamido)-2-methylphenyl)thieno[3,2-d]pyrimidine-7-carboxamide]
15 | 5.00 to 6.00 | 6.00 to 7.00 | Cc1ccc(NC(=O)c2ccc(C(F)(F)F)cc2)cc1NC(=O)c1csc2c(N)ncnc12 [Example 66, 4-amino-N-(2-methyl-5-(4-(trifluoromethyl)benzamido)phenyl)thieno[3,2-d]pyrimidine-7-carboxamide]
16 | 6.00 to 7.00 | 7.00 to 9.00 | CNc1ncnc2c(C(=O)Nc3cc(NC(=O)c4cc(-n5cnc(C)c5)cc(C(F)(F)F)c4)ccc3C)csc12 [Example 78, N-(2-methyl-5-(3-(4-methyl-1H-imidazole-1-yl)-5-(trifluoromethyl)benzoamido)phenyl)-4-(methylamino)thieno[3,2-d]pyrimidine-7-carboxamide]
